Patent US20250296959A1, “B7-H3 TARGETING PEPTIDES AND CONSTRUCTS THEREOF” (Mariana Oncology Inc., priority 2024, published 2025)
Like-named read-outs stand apart in the source and are kept apart here. Starred links: 1 amine or outer side, 2 acyl side, 3 side chain; linkers in the order of their positions; H or OH if unused. Positions of bridges follow the written chain, without caps; N, C: chain ends. Non-standard residues stand in square brackets, D forms with d. Residues, ends and D or L forms follow the SMILES beside them. Groups on a side chain read outwards from the residue. *: point of attachment. X4 = O=C(O)CN1CCN(CC(=O)O)CCN([C@H](CCC(=O)*)C(=O)O)CCN(CC(=O)O)CC1; Ala(piperidin-4-yl) = O=C([C@H](CC1CCN([*:3])CC1)N[*:1])[*:2]; DOTA = O=C(O)CN1CCN(CC(=O)O)CCN(CC(=O)*)CCN(CC(=O)O)CC1; Phe(4-NHCONH2) = NC(=O)Nc1ccc(C[C@H](N)C(=O)O)cc1; Trp(5-F) = N[C@@H](Cc1c[nH]c2ccc(F)cc12)C(=O)O; X1 = C[C@@H](c1ccccc1)[C@H](N[*:1])C(=O)[*:2]; γGlu = O=C(O)[C@H](CCC(=O)[*:2])N[*:1]; 1Nal = N[C@@H](Cc1cccc2ccccc12)C(=O)O; Ala(4-THP) = N[C@@H](CC1CCOCC1)C(=O)O; Val(3-OH) = CC(C)(O)[C@H](N)C(=O)O; PEG4 = NCCOCCOCCOCCOCCC(=O)O; Tle = CC(C)(C)[C@H](N)C(=O)O; hLeu = CC(C)CC[C@H](N)C(=O)O

How the values were obtained:
[1] = system: Calu-6 cell line; test: Cell associated (bound) fraction of [177Lu]Lu-labeled peptide in Calu-6 cells; assay type: cell-based, Human; conditions: 1 hour, 37° C.
Procedure, shortened: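 Detached B7-H3-expressing human lung cancer cells at 5 million/mL were exposed for 1 hour at 37 °C to 0.8 μCi of the 177Lu-labelled peptide, which was formulated in 1% PBSA after labelling at 80 °C, pH ~5. Supernatant and two cold washes counted as unbound, and resuspended cells gamma-counted as the cell-associated fraction.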

[2] = system: Calu-6 cell line; test: Net internalization of [177Lu]Lu-labeled peptide in Calu-6 cells; assay type: cell-based, Human; conditions: 1 hour, 37° C., glycine pH 2.5 acid wash
Procedure, shortened: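 Calu-6 cells, human non-engineered lung cancer expressing B7-H3, resuspended in 1% PBSA at 5 million cells/mL and incubated with the 177Lu-labeled conjugate (labeled at 80 °C, pH ~5, RP-HPLC checked). Gamma counting of the bound fraction, then of the pellet after two glycine pH 2.5 acid strips and NaOH lysis, gives internalized activity.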

[3] = molecular target: T1, human 4lg B7-H3 (Homo sapiens, UniProt Q5ZPR3); test: Affinity determination by surface plasmon resonance (SPR) to 4Ig B7-H3; conditions: 4Ig B7-H3, 37° C. flow cell temperature
T1 sequence (Q5ZPR3 29-534): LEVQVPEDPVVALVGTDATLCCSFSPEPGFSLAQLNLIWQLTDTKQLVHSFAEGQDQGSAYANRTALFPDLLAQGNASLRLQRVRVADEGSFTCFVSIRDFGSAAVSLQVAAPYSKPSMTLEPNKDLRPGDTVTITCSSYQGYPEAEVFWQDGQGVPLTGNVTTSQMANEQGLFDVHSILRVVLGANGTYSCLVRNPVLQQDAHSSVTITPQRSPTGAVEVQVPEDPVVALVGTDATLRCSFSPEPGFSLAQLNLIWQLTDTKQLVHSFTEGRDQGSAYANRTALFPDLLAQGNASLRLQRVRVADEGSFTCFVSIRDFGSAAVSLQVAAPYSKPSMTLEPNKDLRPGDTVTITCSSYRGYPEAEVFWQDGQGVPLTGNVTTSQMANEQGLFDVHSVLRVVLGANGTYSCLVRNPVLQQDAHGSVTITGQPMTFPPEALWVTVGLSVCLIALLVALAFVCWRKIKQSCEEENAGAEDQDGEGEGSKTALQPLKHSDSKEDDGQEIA

Row | SMILES | % cell associated fraction [1] | % net internalization [2] | Kd ([3]; read-out: SPR KD—37° C.) [nM] | Kd ([3]; SPR KD—37° C.) [nM]
1 | CC(=O)N[C@@H](CCC(C)C)C(=O)N[C@@H](Cc1ccc(O)cc1)C(=O)N[C@H]1CSSC[C@@H](C(=O)N[C@@H](Cc2c[nH]c3ccc(F)cc23)C(=O)N[C@@H](Cc2ccccc2)C(=O)N[C@H](C(=O)N[C@H](CCCCNC(=O)CN2CCN(CC(=O)O)CCN(CC(=O)O)CCN(CC(=O)O)CC2)C(=O)O)C(C)(C)O)NC(=O)[C@H](Cc2ccc(NC(N)=O)cc2)NC(=O)[C@H](C(C)C)NC(=O)[C@H](CC(=O)O)NC(=O)[C@H](CC2CCOCC2)NC(=O)[C@H](CC2CCNCC2)NC(=O)CNC(=O)[C@H](C(C)(C)C)NC1=O [compound 427, Ac-hLeu-Y-C-Tbg-G-PipAla-ThpA-D-V-Aph(Cbm)-C-5FW-F-hydroxyVal-dLys(DOTA)-COOH] (Ac-[hLeu]YC[Tle]G[Ala(piperidin-4-yl)][Ala(4-THP)]DV[Phe(4-NHCONH2)]C[Trp(5-F)]F[Val(3-OH)][dK](DOTA)-OH; disulfide 3-11) | C (%>50) | B (25<%≤50) | < 1 | –
2 | CC(=O)N[C@@H](CCC(C)C)C(=O)N[C@@H](Cc1ccc(O)cc1)C(=O)N[C@H]1CSSC[C@@H](C(=O)N[C@@H](Cc2c[nH]c3ccc(F)cc23)C(=O)N[C@@H](Cc2ccccc2)C(=O)N[C@H](C(=O)N[C@H](CCCCNC(=O)[C@H](CCC(=O)O)NC(=O)CN2CCN(CC(=O)O)CCN(CC(=O)O)CCN(CC(=O)O)CC2)C(=O)O)C(C)(C)O)NC(=O)[C@H](Cc2ccc(O)cc2)NC(=O)[C@H](C(C)C)NC(=O)[C@H](CC(=O)O)NC(=O)[C@H](CC2CCOCC2)NC(=O)[C@H](CC2CCNCC2)NC(=O)CNC(=O)[C@H](C(C)(C)C)NC1=O [compound 428, Ac-hLeu-Y-C-Tbg-G-PipAla-ThpA-D-V-Y-C-5FW-F-hydroxyVal-dLys(Glu-DOTA)-COOH] (Ac-[hLeu]YC[Tle]G[Ala(piperidin-4-yl)][Ala(4-THP)]DVYC[Trp(5-F)]F[Val(3-OH)][dK]([Glu-DOTA])-OH; disulfide 3-11) | B (25<%≤50) | A (%≤25) | < 1 | –
3 | CC(=O)N[C@@H](CCC(C)C)C(=O)N[C@@H](Cc1ccc(O)cc1)C(=O)N[C@H]1CSSC[C@@H](C(=O)N[C@@H](Cc2c[nH]c3ccc(F)cc23)C(=O)N[C@@H](Cc2ccccc2)C(=O)N[C@H](C(=O)N[C@H](CCCCNC(=O)[C@@H](CCC(=O)O)NC(=O)CN2CCN(CC(=O)O)CCN(CC(=O)O)CCN(CC(=O)O)CC2)C(=O)O)C(C)(C)O)NC(=O)[C@H](Cc2ccc(O)cc2)NC(=O)[C@H](C(C)C)NC(=O)[C@H](CC(=O)O)NC(=O)[C@H](CC2CCOCC2)NC(=O)[C@H](CC2CCNCC2)NC(=O)CNC(=O)[C@H](C(C)(C)C)NC1=O [compound 429, Ac-hLeu-Y-C-Tbg-G-PipAla-ThpA-D-V-Y-C-5FW-F-hydroxyVal-dLys(dGlu-DOTA)-COOH] (Ac-[hLeu]YC[Tle]G[Ala(piperidin-4-yl)][Ala(4-THP)]DVYC[Trp(5-F)]F[Val(3-OH)][dK]([dE-DOTA])-OH; disulfide 3-11) | B (25<%≤50) | A (%≤25) | < 1 | –
4 | CC(=O)N[C@@H](CCC(C)C)C(=O)N[C@@H](Cc1ccc(O)cc1)C(=O)N[C@H]1CSSC[C@@H](C(=O)N[C@@H](Cc2c[nH]c3ccc(F)cc23)C(=O)N[C@H](C(=O)N[C@H](C(=O)N[C@H](CCCCNC(=O)CN2CCN(CC(=O)O)CCN(CC(=O)O)CCN(CC(=O)O)CC2)C(=O)O)C(C)(C)O)[C@@H](C)c2ccccc2)NC(=O)[C@H](Cc2ccc(O)cc2)NC(=O)[C@H](C(C)C)NC(=O)[C@H](CC(=O)O)NC(=O)[C@H](CC2CCOCC2)NC(=O)[C@H](CC2CCNCC2)NC(=O)CNC(=O)[C@H](C(C)(C)C)NC1=O [compound 433, Ac-hLeu-Y-C-Tbg-G-PipAla-ThpA-D-V-Y-C-5FW-[(2S, 3S)beta-Me-Phe]-hydroxyVal-dLys(DOTA)-COOH] (Ac-[hLeu]YC[Tle]G[Ala(piperidin-4-yl)][Ala(4-THP)]DVYC[Trp(5-F)][X1][Val(3-OH)][dK](DOTA)-OH; disulfide 3-11) | C (%>50) | B (25<%≤50) | – | < 1
5 | CC(=O)N[C@@H](CCC(C)C)C(=O)N[C@@H](Cc1ccc(O)cc1)C(=O)N[C@H]1CSSC[C@@H](C(=O)N[C@@H](Cc2cccc3ccccc23)C(=O)N[C@@H](Cc2ccccc2)C(=O)N[C@H](C(=O)N[C@H](CCCCNC(=O)CN2CCN(CC(=O)O)CCN(CC(=O)O)CCN(CC(=O)O)CC2)C(=O)O)C(C)(C)O)NC(=O)[C@H](Cc2ccc(O)cc2)NC(=O)[C@H](C(C)C)NC(=O)[C@H](CC(=O)O)NC(=O)[C@H](CC2CCOCC2)NC(=O)[C@H](CC2CCNCC2)NC(=O)CNC(=O)[C@H](C(C)(C)C)NC1=O [compound 436, Ac-hLeu-Y-C-Tbg-G-PipAla-ThpA-D-V-Y-C-1Nal-F-hydroxyVal-dLys(DOTA)-COOH] (Ac-[hLeu]YC[Tle]G[Ala(piperidin-4-yl)][Ala(4-THP)]DVYC[1Nal]F[Val(3-OH)][dK](DOTA)-OH; disulfide 3-11) | B (25<%≤50) | A (%≤25) | – | < 1
6 | CC(=O)N[C@@H](CCC(C)C)C(=O)N[C@@H](Cc1ccc(O)cc1)C(=O)N[C@H]1CSSC[C@@H](C(=O)N[C@@H](Cc2c[nH]c3ccc(F)cc23)C(=O)N[C@@H](Cc2ccccc2)C(=O)N[C@H](C(=O)N[C@H](CCCCNC(=O)CC[C@H](C(=O)O)N2CCN(CC(=O)O)CCN(CC(=O)O)CCN(CC(=O)O)CC2)C(=O)O)C(C)(C)O)NC(=O)[C@H](Cc2ccc(O)cc2)NC(=O)[C@H](C(C)C)NC(=O)[C@H](CC(=O)O)NC(=O)[C@H](CC2CCOCC2)NC(=O)[C@H](CC2CCNCC2)NC(=O)CNC(=O)[C@H](C(C)(C)C)NC1=O [compound 438, Ac-hLeu-Y-C-Tbg-G-PipAla-ThpA-D-V-Y-C-5FW-F-hydroxyVal-dLys(R-DOTAGA)-COOH] (Ac-[hLeu]YC[Tle]G[Ala(piperidin-4-yl)][Ala(4-THP)]DVYC[Trp(5-F)]F[Val(3-OH)][dK](X4)-OH; disulfide 3-11) | B (25<%≤50) | A (%≤25) | < 1 | –
7 | CC(=O)N[C@@H](CCC(C)C)C(=O)N[C@@H](Cc1ccc(O)cc1)C(=O)N[C@H]1CSSC[C@@H](C(=O)N[C@@H](Cc2c[nH]c3ccc(F)cc23)C(=O)N[C@@H](Cc2ccccc2)C(=O)N[C@H](C(=O)N[C@H](CCCCNC(=O)CC[C@H](NC(=O)CN2CCN(CC(=O)O)CCN(CC(=O)O)CCN(CC(=O)O)CC2)C(=O)O)C(=O)O)C(C)(C)O)NC(=O)[C@H](Cc2ccc(O)cc2)NC(=O)[C@H](C(C)C)NC(=O)[C@H](CC(=O)O)NC(=O)[C@H](CC2CCOCC2)NC(=O)[C@H](CC2CCNCC2)NC(=O)CNC(=O)[C@H](C(C)(C)C)NC1=O [compound 440, Ac-hLeu-Y-C-Tbg-G-PipAla-ThpA-D-V-Y-C-5FW-F-hydroxyVal-dLys(gGlu-DOTA)-COOH] (Ac-[hLeu]YC[Tle]G[Ala(piperidin-4-yl)][Ala(4-THP)]DVYC[Trp(5-F)]F[Val(3-OH)][dK]([γGlu-DOTA])-OH; disulfide 3-11) | B (25<%≤50) | A (%≤25) | < 1 | –
8 | CC(=O)N[C@@H](CCC(C)C)C(=O)N[C@@H](Cc1ccc(O)cc1)C(=O)N[C@H]1CSSC[C@@H](C(=O)N[C@@H](Cc2c[nH]c3ccc(F)cc23)C(=O)N[C@@H](Cc2ccccc2)C(=O)N[C@H](C(=O)N[C@H](CCC(=O)O)C(N)=O)C(C)(C)O)NC(=O)[C@H](Cc2ccc(O)cc2)NC(=O)[C@H](C(C)C)NC(=O)[C@H](CC(=O)O)NC(=O)[C@H](CC2CCN(C(=O)CCOCCOCCOCCOCCNC(=O)CN3CCN(CC(=O)O)CCN(CC(=O)O)CCN(CC(=O)O)CC3)CC2)NC(=O)[C@H](CC2CCNCC2)NC(=O)CNC(=O)[C@H](C(C)(C)C)NC1=O [compound 444, Ac-hLeu-Y-C-Tbg-G-PipAla-Pip(PEG4-DOTA)Ala-D-V-Y-C-5FW-F-hydroxyVal-dGlu-CONH2] (Ac-[hLeu]YC[Tle]G[Ala(piperidin-4-yl)][Ala(piperidin-4-yl)]([PEG4-DOTA])DVYC[Trp(5-F)]F[Val(3-OH)][dE]-NH2; disulfide 3-11) | B (25<%≤50) | A (%≤25) | < 1 | –
